Test results taken from article PMC2724550, “Citrus auraptene suppresses cyclin D1 and significantly delays N-methyl nitrosourea induced mammary carcinogenesis in female Sprague-Dawley rats” (BMC Cancer, 2009).

What was measured:
[1] = Stability of auraptene in diet by HPLC; assay type: physicochemical; conditions: animal room conditions, HPLC analysis, data not shown
c-Myc = test system: c-Myc; design: method as in PMID 16979634; conditions: 25 μM auraptene, HT-29 human colorectal cancer cells; cited from earlier work
[2] = Tissue extraction and HPLC-fluorescence analysis of auraptene in rat tissues; assay type: in vivo, female Sprague-Dawley rats; conditions: for average concentration in normal mammary glands: means ± S.E.
Protocol: The concentration of auraptene was measured in mammary glands, livers and tumors of rats. The specimens from the animals were weighed and minced on a glass plate kept on ice. The minced sample was added to 0.05 M Tris buffer, pH 7.4, containing 0.25 M sucrose in 1 ml. To 1 ml of this homogenized sample, 80 μL of 100 μM curcumin was added as internal standard followed by vortexing. The sample was then extracted twice with ethyl acetate: acetone (2:1 v/v). The combined supernatant was then dried under N2 gas, resuspended in 1 mL 70% methanol/H2O and analyzed by HPLC (Shimadzu, SIL-10AF) with UV (254 nm) and fluorescence detection (Shimadzu, RF-535) at excitation and emission wavelengths of 329 nm and 390 nm respectively. The flow rate in HPLC was 1 ml/min with C18*5μ column. The mobile phase started with 80% methanol in water up to 20 minutes and was increased in a linear gradient up to 100% methanol over the next 5 minutes. Under these conditions, auraptene eluted at 14 minutes and curcumin at 6 minutes. The ratio of area under the curve for auraptene at different concentrations to that of curcumin was plotted to make the standard curve. The concentration of auraptene in the specimens was calculated from the standard curve. For the calculation of concentration, 1 gm of the tissue was assumed to occupy a volume of 1 ml.
Figure 6 Concentrations of auraptene in rat tissues from the tumor study. The rat mammary glands, tumors and livers were weighed and homogenized. To the homogenate 80 μL of 100 μM curcumin was added as internal standard and extracted twice with ethyl acetate: acetone mixture (2:1 v/v). The extract was dried and resuspended in 1 mL 70% methanol/H2O and analyzed by HPLC (Shimadzu, SIL-10AF) with UV (254 nm) and fluorescence detection (Shimadzu, RF-535) at excitation and emission wavelengths of 329 nm and 390 nm respectively.

CC(C)=CCC/C(C)=C/COc1ccc2ccc(=O)oc2c1 [auraptene]
stability in diet [1]: not degraded
expression of c-Myc (c-Myc): suppressed the expression of c-Myc
average concentration in normal mammary glands ([2]; 200 ppm in diet): 1.4 ± 0.5 µM
average concentration in livers ([2]; 500 ppm in diet, mean, n = 2): 0.87 µM
average concentration in normal mammary glands ([2]; 500 ppm in diet): 1.8 ± 0.3 µM
